Assay results published in patent US12209079B2 (GENERAL INCORPORATED ASSOCIATION PHARMA VALLEY PROJECT …, priority 2017, dated 2025).
Counter-ions that a name gives are not always drawn.

Experiments:
[1] = target: rhIDO (recombinant human IDO) (Homo sapiens, UniProt P14902); experiment: Enzyme assay using rhIDO (rate of kynurenine production); assay type: biochemical; conditions: 2 h; final concentration of the compound 10 μM; rate relative to reaction without compound; read-out: rhIDO-mediated kynurenine production
Summary of the method: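 Kynurenine formation, expressed as % of uncompounded reaction after background subtraction, was read by absorbance at 490 nm following TCA stop, 50 °C hydrolysis and Ehrlich-type p-dimethylbenzaldehyde staining. Recombinant human IDO with ascorbate/methylene blue/catalase was pre-exposed to compound 10 min, then reacted 120 min at 37 °C after adding 2 mM tryptophan stock.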

[2] = target: rhTDO (recombinant human TDO) (Homo sapiens, UniProt P48775); experiment: Enzyme assay using rhTDO (rate of kynurenine production); assay type: biochemical; conditions: 2 h; final concentration of the compound 10 μM; rate relative to reaction without compound; read-out: rhTDO-mediated kynurenine production
Summary of the method: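 Kynurenine output, as percent of untreated control after background subtraction, read at 490 nm with p-dimethylbenzaldehyde following TCA quench and 15 min heating at 50 °C. Reaction: rhTDO with compound, 10 min preincubation then 120 min at 37 °C, started by 20 mM tryptophan stock, in phosphate/ascorbate/methylene blue/catalase.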

IDO in A431 cells = target: T1, IDO in A431 cells (Homo sapiens, UniProt P14902); experiment: IDO cell-based assay, kynurenine production in IFN-γ stimulated A431 cells; conditions: A-431, 24 h; final concentration of the compound 10 μM; rate relative to culture without compound
T1 construct: endogenous in cells; host or cells: A431 cells, IFN-γ stimulated
Summary of the method: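 Kynurenine output was read by absorbance at 460 nm after p-dimethylbenzaldehyde/trichloroacetic acid reagent, background-corrected, and given as % of untreated wells. Before the read, cells in 178 μM L-tryptophan medium had 1 h compound preincubation, then 24 h IFN-γ stimulation (added as 100 ng/mL dilution).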

TDO in A172 cells = target: T2, TDO in A172 cells (Homo sapiens, UniProt P48775); experiment: TDO cell-based assay, kynurenine production in A172 cells; conditions: A 172; final concentration of the compound 10 μM; rate relative to culture without compound
T2 construct: endogenous in cells; host or cells: A172 cells
Summary of the method: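 A172 cells were preincubated with compound for 1 h, then given L-tryptophan (final 524 μM) for 24 h at 37 °C. Kynurenine was read at 460 nm after p-dimethylbenzaldehyde/TCA reagent, background-subtracted, and expressed as % of no-compound production.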

T1 sequence (P14902 whole entry): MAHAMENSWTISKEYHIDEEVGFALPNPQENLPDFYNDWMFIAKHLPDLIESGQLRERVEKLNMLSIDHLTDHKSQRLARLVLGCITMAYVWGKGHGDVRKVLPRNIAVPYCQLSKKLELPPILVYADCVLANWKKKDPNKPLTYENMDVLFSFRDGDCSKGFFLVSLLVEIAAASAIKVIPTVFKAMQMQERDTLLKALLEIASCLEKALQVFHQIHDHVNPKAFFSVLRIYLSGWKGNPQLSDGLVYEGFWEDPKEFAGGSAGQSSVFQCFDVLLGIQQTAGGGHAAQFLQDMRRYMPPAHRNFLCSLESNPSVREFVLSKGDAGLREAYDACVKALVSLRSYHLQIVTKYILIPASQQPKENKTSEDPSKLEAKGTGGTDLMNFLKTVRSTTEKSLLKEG
rhIDO (recombinant human IDO), sequence (P14902 whole entry): as above
T2 sequence (P48775 whole entry): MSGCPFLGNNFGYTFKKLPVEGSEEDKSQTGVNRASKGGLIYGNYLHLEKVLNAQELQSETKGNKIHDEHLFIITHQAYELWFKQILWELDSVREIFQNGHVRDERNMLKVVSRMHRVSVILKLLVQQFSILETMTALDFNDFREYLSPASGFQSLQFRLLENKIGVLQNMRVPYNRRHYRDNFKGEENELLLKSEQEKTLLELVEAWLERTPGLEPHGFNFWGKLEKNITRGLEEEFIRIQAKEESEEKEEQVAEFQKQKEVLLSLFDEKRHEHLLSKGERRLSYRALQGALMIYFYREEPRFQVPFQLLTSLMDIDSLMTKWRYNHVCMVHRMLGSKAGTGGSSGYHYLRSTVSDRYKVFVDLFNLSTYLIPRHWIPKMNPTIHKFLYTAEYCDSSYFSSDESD
rhTDO (recombinant human TDO), sequence (P48775 whole entry): as above

| SMILES | remaining activity at 10 µM [1] [%] | remaining activity at 10 µM [2] [%] | remaining activity at 10 µM (IDO in A431 cells) [%] | remaining activity at 10 µM (TDO in A172 cells) [%] |
| --- | --- | --- | --- | --- |
| N=C(N)SCc1cc(Cl)c(Cl)cc1CSC(=N)N [Compound 36, (4,5-dichloro-1,2-phenylene)bis(methylene) dicarbamimidothioate dihydrobromide] | < 1 | < 3 | 1 | -15 |
| N=C(N)[Se]Cc1ccc(Cl)cc1C[Se]C(=N)N [Compound 109, (4-Chloro-1,2-phenylene)bis(methylene) dicarbamimidoselenoate dihydrobromide] | 61 | 57 | 19 | 63 |
| N#Cc1ccc(CNC(=O)c2ccccc2CSC(=N)N)cc1 [Compound 96, 2-((4-Cyanobenzyl)carbamoyl)benzyl carbamimidothioate hydrobromide] | 71 | 26 | 93 | 38 |
| COc1cccc(CNC(=O)c2ccc(Br)cc2C[Se]C(=N)N)c1 [Compound 106, 5-Bromo-2-((3-methoxybenzyl)carbamoyl)benzyl carbamimidoselenoate hydrobromide] | 90 | 98 | 64 | 48 |
| c1cnc(SCc2ccccc2CSc2ncccn2)nc1 [Compound 16, 1,2-bis((pyrimidin-2-ylthio)methyl)benzene] | 66 | 68 | 76 | 74 |
| CNC(=O)Cc1ccccc1CSC(=N)N [Compound 62, 2-(2-(Methylamino)-2-oxoethyl)benzyl carbamimidothioate hydrobromide] | 58 | 21 | 86 | 56 |
| FC(F)(F)c1ccc(CCN2CN=C(SCc3ccccc3CSC3=NCN(CCc4ccc(C(F)(F)F)cc4)CN3)NC2)cc1 [Compound 142, 1,2-Bis (((5-(4-(Trifluoromethyl)phenethyl)-1,4,5,6-tetrahydro-1,3,5-triazin-2-yl)thio)methyl)benzene] | 43 | 18 | 16 | 6 |
| c1ccc(CCN2CN=C(SCc3ccccc3CSC3=NCN(CCc4ccccc4)CN3)NC2)cc1 [Compound 9, 1,2-bis(((5-phenethyl-1,4,5,6-tetrahydro-1,3,5-triazin-2-yl)thio)methyl)benzene] | 30 | 36 | 10 | 0 |
| COc1ccc(CCN2CN=C(SCc3ccc(Br)cc3CSC3=NCN(CCc4ccc(OC)cc4)CN3)NC2)cc1 [Compound 148, 6,6′-(((4-Bromo-1,2-phenylene)bis(methylene))bis(sulfanediyl))bis(3-(4-methoxyphenethyl)-1,2,3,4-tetrahydro-1,3,5-triazine)] | 13 | 8 | 7 | 18 |
| COc1cccc(CCN2CN=C(SCc3cc(Cl)c(Cl)cc3CSC3=NCN(CCc4cccc(OC)c4)CN3)NC2)c1 [Compound 153, 6,6′-(((4,5-Dichloro-1,2-phenylene)bis(methylene))bis(sulfanediyl))bis(3-(3-methoxyphenethyl)-1,2,3,4-tetrahydro-1,3,5-triazine)] | 8 | 6 | 12 | 9 |
| N=C(N)SCCc1ccccc1CSC(=N)N [Compound 51, 2-(2-(Carbamimidoylthio)ethyl)benzyl carbamimidothioate dihydrobromide] | 19 | 13 | 23 | 25 |
| CNC(=N)SCc1ccccc1CSC(=N)NC [Compound 11, 1,2-phenylenebis(methylene) bis(methylcarbamimidothioate) dihydrochloride] | 51 | 58 | 6 | 19 |
| N=C(N)SCc1cc(Br)ccc1C(=O)NCc1ccc(Br)cc1 [Compound 97, 5-Bromo-2-((4-bromobenzyl)carbamoyl)benzyl carbamimidothioate hydrobromide] | 85 | 16 | 83 | 37 |
| N#Cc1ccc(CNC(=O)c2ccccc2C[Se]C(=N)N)cc1 [Compound 104, 2-((4-Cyanobenzyl)carbamoyl)benzyl carbamimidoselenoate hydrobromide] | 78 | 81 | -4 | -1 |

More lines, now with the values ahead:

| remaining activity at 10 µM [1] [%] | remaining activity at 10 µM [2] [%] | remaining activity at 10 µM (IDO in A431 cells) [%] | remaining activity at 10 µM (TDO in A172 cells) [%] | SMILES |
| --- | --- | --- | --- | --- |
| -1 | 20 | 10 | 0 | COc1ccc(/N=C(\N)SCc2cc(Cl)c(Cl)cc2CS/C(N)=N/c2ccc(OC)cc2)cc1 [Compound 124, (4,5-Dichloro-1,2-phenylene)bis(methylene) (E,E)-bis(N′-(4-methoxyphenyl)carbamimidothioate) dihydrobromide] |
| 7 | 4 | 1 | -11 | Clc1cc(CSC2=NCN(CCC3CCCCC3)CN2)c(CSC2=NCN(CCC3CCCCC3)CN2)cc1Cl [Compound 61, 6,6′-(((4,5-Dichloro-1,2-phenylene)bis(methylene))bis(sulfanediyl))bis(3-(2-cyclohexylethyl)-1,2,3,4-tetrahydro-1,3,5-triazine)] |
| 43 | 46 | 5 | 1 | Brc1cccc(CCN2CN=C(SCc3ccccc3CSC3=NCN(CCc4cccc(Br)c4)CN3)NC2)c1 [Compound 19, 1,2-bis(((5-(3-bromophenethyl)-1,4,5,6-tetrahydro-1,3,5-triazin-2-yl)thio)methyl)benzene] |
| -1 | 14 | 8 | 0 | Cc1ccc(/N=C(\N)SCc2cc(Cl)c(Cl)cc2CS/C(N)=N/c2ccc(C)cc2)cc1 [Compound 138, (4,5-Dichloro-1,2-phenylene)bis(methylene) (E,E)-bis(N′-(p-tolyl)carbamimidothioate) dihydrobromide] |
| -2 | 5 | 10 | 5 | N/C(=N\c1ccc(F)c(Cl)c1)SCc1cc(Cl)c(Cl)cc1CS/C(N)=N/c1ccc(F)c(Cl)c1 [Compound 134, (4,5-Dichloro-1,2-phenylene)bis(methylene) (E,E)-bis(N′-(3-chloro-4-fluorophenyl)carbamimidothioate) dihydrobromide] |
| -2 | 8 | 12 | 0 | N/C(=N\c1ccc(Br)cc1)SCc1cc(Cl)c(Cl)cc1CS/C(N)=N/c1ccc(Br)cc1 [Compound 135, (4,5-Dichloro-1,2-phenylene)bis(methylene) (E,E)-bis(N′-(4-bromophenyl)carbamimidothioate) dihydrobromide] |
| 18 | 24 | 6 | -4 | Cc1ccc(CCN2CN=C(SCc3ccccc3CSC3=NCN(CCc4ccc(C)c(C)c4)CN3)NC2)cc1C [Compound 23, 1,2-bis(((5-(3,4-dimethylphenethyl)-1,4,5,6-tetrahydro-1,3,5-triazin-2-yl)thio)methyl)benzene] |
| 71 | 50 | 56 | 16 | N#Cc1ccc(CNC(=O)c2ccc(Br)cc2CS/C(N)=N/c2ccc(F)c(Cl)c2)cc1 [Compound 85, 5-Bromo-2-((4-cyanobenzyl)carbamoyl)benzyl (E)-N′-(3-chloro-4-fluorophenyl)carbamimidothioate hydrobromide] |
| -3 | 1 | 1 | 4 | NC(=O)SCc1ccccc1CS/C(N)=N/c1ccc(F)c(Cl)c1 [Compound 59, (E)-S-(2-(((N′-(3-Chloro-4-fluorophenyl)carbamimidoyl)thio)methyl)benzyl) carbamothioate hydrobromide] |
